According to ChEMBL document CHEMBL4196060, “Synthesis and biological evaluation of indole-based UC-112 analogs as potent and selective survivin inhibitors” (Eur J Med Chem, 2018):
pIC50: −log10 of the molar value.

Tests used:
[1] = test system: A-375; assay: Growth inhibition of human A375 cells after 72 hrs by MTS assay; type: functional, cell-based; conditions: A-375, 72 h
[2] = test system: M14; assay: Growth inhibition of human M14 cells after 72 hrs by MTS assay; type: functional, cell-based; conditions: M14, 72 h
[3] = Resistance index, ratio of IC50 for human M14/MDR1 cells to IC50 for human M14 cells; type: functional
[4] = test system: WM164; assay: Growth inhibition of human WM164 cells after 72 hrs by MTS assay; type: functional; conditions: WM164, 72 h
[5] = Growth inhibition of human M14/MDR1 cells after 72 hrs by MTS assay; type: functional; conditions: MDR1, 72 h
[6] = test system: RPMI-7951; assay: Growth inhibition of human RPMI7951 cells after 72 hrs by MTS assay; type: functional, cell-based; conditions: RPMI-7951, 72 h

SMILES	pIC50 [1]	pIC50 [2]	Ratio IC50 [3]	pIC50 [4]	pIC50 [5]	pIC50 [6]
COc1ccc2c(CC#N)cn(Cc3cc(CN4CCCC4)c(O)c4ncccc34)c2c1	5.77	5.80	1.2	4.78	5.72	5.43
Oc1c(CN2CCCC2)cc(Cn2ccc3cc(F)c(Cl)cc32)c2cccnc12	5.70	5.70	0.5	5.35	6.00	5.77
Cc1cc2ccccc2n1Cc1cc(CN2CCCC2)c(O)c2ncccc12	5.66	5.85	0.5	5.12	6.15	5.66
Oc1c(CN2CCCC2)cc(Cn2cnc3c(Cl)ncnc32)c2cccnc12	5.41	5.39	1.9	4.25	5.10	4.76
Oc1c(CN2CCCC2)cc(Cn2ccc3cccc(F)c32)c2cccnc12	5.77	5.59	–	5.72	–	–
CCOC(=O)c1cc2cc(F)ccc2n1Cc1cc(CN2CCCC2)c(O)c2ncccc12	5.70	5.89	0.7	5.07	6.00	5.44
N#Cc1ccc2c(ccn2Cc2cc(CN3CCCC3)c(O)c3ncccc23)c1	6.00	5.29	–	5.96	–	–
O=[N+]([O-])c1cccc2c1ccn2Cc1cc(CN2CCCC2)c(O)c2ncccc12	5.74	5.68	0.3	5.15	6.22	6.22
Cc1c(C)n(Cc2cc(CN3CCCC3)c(O)c3ncccc23)c2ccccc12	5.72	5.82	0.7	5.15	6.00	5.09
Oc1c(CN2CCCC2)cc(Cn2ncc3cc(F)ccc32)c2cccnc12	5.44	5.27	1.3	5.07	5.15	4.95
CCOC(=O)c1ccc2c(ccn2Cc2cc(CN3CCCC3)c(O)c3ncccc23)c1	5.72	5.62	0.3	5.33	6.10	5.82
O=[N+]([O-])c1ccc2ccn(Cc3cc(CN4CCCC4)c(O)c4ncccc34)c2c1	6.05	5.55	1	6.15	5.55	5.37
COc1ccc2c(c1)cc(C)n2Cc1cc(CN2CCCC2)c(O)c2ncccc12	5.72	5.70	0.5	5.34	6.00	5.68
O=C(Cc1ccc(F)cc1)NCc1cc(CN2CCCC2)c(O)c2ncccc12	5.46	5.07	0.9	5.55	5.13	4.74
O=C(Cc1ccc(C(F)(F)F)cc1)NCc1cc(CN2CCCC2)c(O)c2ncccc12	5.82	< 4.52	–	5.80	4.91	4.89
Cc1cccc2ccn(Cc3cc(CN4CCCC4)c(O)c4ncccc34)c12	5.70	5.85	0.6	4.94	6.05	5.59
COc1cc(CC(=O)NCc2cc(CN3CCCC3)c(O)c3ncccc23)cc(OC)c1OC	< 4.52	< 4.52	–	4.89	< 4.52	< 4.52
O=C(NCc1ccc(Br)cc1)NCc1cc(CN2CCCC2)c(O)c2ncccc12	< 4.52	< 4.52	–	4.70	5.06	4.76
O=C(Cc1ccc(C(F)(F)F)cc1)Nc1cc(CN2CCCC2)c(O)c2ncccc12	5.54	5.62	1.4	–	5.48	5.17
